Measurements published in patent US20250241879A1, “CAPSAICIN SEQUENTIAL DOSING METHOD FOR TREATMENT OF KNEE JOINT PAIN” (priority 2018, published 2025).

What was measured:
[1] = test system: human patients with bilateral knee osteoarthritis; assay: Procedure pain (NPRS) due to intraarticular trans-capsaicin, Breg pad vs ice pack cooling (Example 7); type: in vivo; details: 1 mg intraarticular
Description: (§1) Human patients experiencing osteoarthritic knee joint pain were subjected to two different protocols for intraarticular administration of trans-capsaicin. Temporary pain expected due to administration of capsaicin was analyzed, along with the intraarticular temperature of the knee joint and the temperature of the patient's skin in the area to be cooled.
(§2) One of the protocols utilized a Breg Knee WrapOn Polar Pad (as illustrated in FIG. 1) that utilizes circulating ice-water to achieve cooling, where the pad is placed on skin surrounding the knee in order to cool the knee joint. The other protocol utilized ice-pack cooling, in which the patient's knee was wrapped with a stockinette and then the ice pack was positioned on top of the stockinette so that the ice pack is positioned over the patient's patella to thereby cool the knee joint. The ice pack was a LEADSTAR pain relief reusable cold therapy ice pack (size=6 inches). A temperature probe was placed into the intraarticular space of the patient's knee joint to measure intraarticular temperature of the knee joint. A temperature probe was also placed on the skin in the area to be cooled in order to measure skin temperature in the area to be cooled.
Five human patients suffering from moderate to severe painful bilateral knee osteoarthritis were recruited for this study evaluating the impact that cooling protocol has on the magnitude of temporary pain experienced by the patient due to administration of capsaicin. […] Patients that participated in the study passed the following screening criteria and meet the patient inclusion and exclusion criteria are set forth below. As part of patient screening, patients received an intradermal injection of 100 μL (100 μg) capsaicin into the non-dominant volar forearm. To be eligible to enter the study, patients were able to tolerate the capsaicin injection. Screening patients rated the pain from capsaicin injection at 5, 10, 20, and 30 minutes after injection using a 0-10 Numerical Pain Rating Scale, where “0” equals no pain and “10” equals worst possible pain.
as §2, with “ice pack (having a surface for application to the patient, wherein said surface has a diameter of approximately six inches) is positioned” for “ice pack is positioned”, “knee joint. A temperature” for “knee joint. The ice pack was a LEADSTAR pain relief reusable cold therapy ice pack (size=6 inches). A temperature”, “knee joint. At the discretion of the physician performing the procedure, in order to reduce discomfort for the patient, the protocol authorized the physician to instill a volume of 1-2 cc of 2% w/w lidocaine (without epinephrine) into the skin and subcutaneous tissue of the knee at the site of intra-articular probe insertion. A temperature” for “knee joint. A temperature”
One the first day of the study, patients were randomized so that (i) three patients receiving cooling of the knee joint using the Breg Knee WrapOn Polar Pad and (ii) two patients will receive ice-pack cooling over the patella as set forth above. Patients were subjected to the following procedure: • Placement of intraarticular temperature probe and skin temperature probe. […]

[2] = test system: human patients with knee osteoarthritis; assay: Procedure pain (NPRS) due to intraarticular trans-capsaicin, Breg pad vs Elasto-Gel wrap cooling (Example 8); type: in vivo; details: four patients (Example 8), 1 mg intraarticular
Description: as §1
One of the protocols utilized a Breg Knee WrapOn Polar Pad (as illustrated in FIG. 1) that utilizes circulating ice-water to achieve cooling, where the pad is placed on skin surrounding the knee in order to cool the knee joint. The other protocol utilized an Elasto-Gel All Purpose Therapy Wrap measuring 6 inches by 24 inches in size, in order to cool the knee joint. A temperature probe was placed into the intraarticular space of the patient's knee joint to measure intraarticular temperature of the knee joint. A temperature probe was also placed on the skin in the area to be cooled in order to measure skin temperature in the area to be cooled.
Experimental procedure used was the same as described in Example 8 herein, except that an Elasto-Gel All Purpose Therapy Wrap measuring 6 inches by 24 inches in size was used to cool the knee joint, in lieu of the ice pack. The Elasto-Gel All Purpose Therapy Wrap was removed from a freezer (approximately 0° F.) just prior to use.

COc1cc(CNC(=O)CCCCC=CC(C)C)ccc1O [trans-capsaicin, N-[(4-hydroxy-3-methoxyphenyl)methyl]-8-methylnon-6-enamide]
Knee Pain (NPRS) ([1]; Ice Pack cooling, 20 min, all five patients (Example 7)): 0.4 (+/−0.5) | Knee Pain (NPRS) ([1]; Ice Pack cooling, 20 min, four patients (Example 7)): 0.5 (+/−0.6) | Knee Pain (NPRS) ([1]; Ice Pack cooling, 30 min, all five patients (Example 7)): 0.3 (+/−0.5) | Knee Pain (NPRS) ([1]; Ice Pack cooling, 30 min, four patients (Example 7)): 0.3 (+/−0.6) | Knee Pain (NPRS) ([1]; Ice Pack cooling, 40 min, all five patients (Example 7)): 0.0 | Knee Pain (NPRS) ([1]; Ice Pack cooling, 40 min, four patients (Example 7)): 0.0 | Knee Pain (NPRS) ([1]; Ice Pack cooling, 50 min, all five patients (Example 7)): 0.3 (+/−0.5) | Knee Pain (NPRS) ([1]; Ice Pack cooling, 50 min, four patients (Example 7)): 0.3 (+/−0.5) | Knee Pain (NPRS) ([1]; Ice Pack cooling, 70 min, all five patients (Example 7)): 7.3 (+/−1.9) | Knee Pain (NPRS) ([1]; Ice Pack cooling, 70 min, four patients (Example 7)): 7.3 (+/−1.9) | Knee Pain (NPRS) ([1]; Ice Pack cooling, 80 min, all five patients (Example 7)): 5.4 (+/−3.7) | Knee Pain (NPRS) ([1]; Ice Pack cooling, 80 min, four patients (Example 7)): 6.8 (+/−2.5) | Knee Pain (NPRS) ([1]; Ice Pack cooling, 90 min, all five patients (Example 7)): 4.0 (+/−1.6) | Knee Pain (NPRS) ([1]; Ice Pack cooling, 90 min, four patients (Example 7)): 4.3 (+/−1.7) | Knee Pain (NPRS) ([1]; Ice Pack cooling, 100 min, all five patients (Example 7)): 3.2 (+/−1.6) | Knee Pain (NPRS) ([1]; Ice Pack cooling, 100 min, four patients (Example 7)): 3.5 (+/−1.7) | Knee Pain (NPRS) ([1]; Ice Pack cooling, 110 min, all five patients (Example 7)): 2.4 (+/−2.1) | Knee Pain (NPRS) ([1]; Ice Pack cooling, 110 min, four patients (Example 7)): 2.8 (+/−2.2) | Knee Pain (NPRS) ([1]; Ice Pack cooling, 120 min, all five patients (Example 7)): 1.8 (+/−1.3) | Knee Pain (NPRS) ([1]; Ice Pack cooling, 120 min, four patients (Example 7)): 2.0 (+/−1.4) | Knee Pain (NPRS) ([1]; Ice Pack cooling, 130 min, all five patients (Example 7)): 2.0 (+/−1.0) | Knee Pain (NPRS) ([1]; Ice Pack cooling, 130 min, four patients (Example 7)): 2.3 (+/−1.0) | Knee Pain (NPRS) ([1]; Ice Pack cooling, 140 min, all five patients (Example 7)): 1.8 (+/−1.1) | Knee Pain (NPRS) ([1]; Ice Pack cooling, 140 min, four patients (Example 7)): 1.8 (+/−1.3) | Knee Pain (NPRS) ([1]; Ice Pack cooling, 150 min, all five patients (Example 7)): 1.4 (+/−0.9) | Knee Pain (NPRS) ([1]; Ice Pack cooling, 150 min, four patients (Example 7)): 1.3 (+/−1.0) | Knee Pain (NPRS) ([1]; Ice Pack cooling, 160 min, all five patients (Example 7)): 1.0 (+/−1.4) | Knee Pain (NPRS) ([1]; Ice Pack cooling, 160 min, four patients (Example 7)): 2.0 | Knee Pain (NPRS) ([1]; Ice Pack cooling, 170 min, all five patients (Example 7)): 0.5 (+/−0.7) | Knee Pain (NPRS) ([1]; Ice Pack cooling, 170 min, four patients (Example 7)): 1.0 | Knee Pain (NPRS) ([1]; Ice Pack cooling, 180 min, all five patients (Example 7)): 7.0 | Knee Pain (NPRS) ([1]; Ice Pack cooling, 180 min, four patients (Example 7)): 7.0 | Knee Pain (NPRS) ([1]; Ice Pack cooling, 190 min, all five patients (Example 7)): 2.0 | Knee Pain (NPRS) ([1]; Ice Pack cooling, 190 min, four patients (Example 7)): 2.0 | Knee Pain (NPRS) ([1]; Ice Pack cooling, Baseline, all five patients (Example 7)): 1.0 (+/−2.2) | Knee Pain (NPRS) ([1]; Ice Pack cooling, Baseline, four patients (Example 7)): 1.3 (+/−2.5) | Knee Pain (NPRS) ([1]; Standard Cooling Device (Breg pad), 20 min, all five patients (Example 7)): 1.0 (+/−1.7) | Knee Pain (NPRS) ([1]; Standard Cooling Device (Breg pad), 20 min, four patients (Example 7)): 1.3 (+/−1.9) | Knee Pain (NPRS) ([1]; Standard Cooling Device (Breg pad), 30 min, all five patients (Example 7)): 1.2 (+/−1.1) | Knee Pain (NPRS) ([1]; Standard Cooling Device (Breg pad), 30 min, four patients (Example 7)): 1.3 (+/−1.3) | Knee Pain (NPRS) ([1]; Standard Cooling Device (Breg pad), 50 min, all five patients (Example 7)): 0.8 (+/−0.8) | Knee Pain (NPRS) ([1]; Standard Cooling Device (Breg pad), 50 min, four patients (Example 7)): 1.0 (+/−0.8) | Knee Pain (NPRS) ([1]; Standard Cooling Device (Breg pad), 70 min, all five patients (Example 7)): 5.0 (+/−2.9) | Knee Pain (NPRS) ([1]; Standard Cooling Device (Breg pad), 70 min, four patients (Example 7)): 4.0 (+/−2.2) | Knee Pain (NPRS) ([1]; Standard Cooling Device (Breg pad), 80 min, all five patients (Example 7)): 4.0 (+/−1.4) | Knee Pain (NPRS) ([1]; Standard Cooling Device (Breg pad), 80 min, four patients (Example 7)): 3.8 (+/−1.5) | Knee Pain (NPRS) ([1]; Standard Cooling Device (Breg pad), 90 min, all five patients (Example 7)): 2.8 (+/−1.6) | Knee Pain (NPRS) ([1]; Standard Cooling Device (Breg pad), 90 min, four patients (Example 7)): 2.5 (+/−1.7) | Knee Pain (NPRS) ([1]; Standard Cooling Device (Breg pad), 100 min, all five patients (Example 7)): 2.0 (+/−1.4) | Knee Pain (NPRS) ([1]; Standard Cooling Device (Breg pad), 100 min, four patients (Example 7)): 1.8 (+/−1.5) | Knee Pain (NPRS) ([1]; Standard Cooling Device (Breg pad), 110 min, all five patients (Example 7)): 1.2 (+/−0.8) | Knee Pain (NPRS) ([1]; Standard Cooling Device (Breg pad), 110 min, four patients (Example 7)): 1.3 (+/−1.0) | Knee Pain (NPRS) ([1]; Standard Cooling Device (Breg pad), 120 min, all five patients (Example 7)): 1.0 (+/−0.7) | Knee Pain (NPRS) ([1]; Standard Cooling Device (Breg pad), 120 min, four patients (Example 7)): 1.0 (+/−0.8) | Knee Pain (NPRS) ([1]; Standard Cooling Device (Breg pad), 130 min, all five patients (Example 7)): 0.6 (+/−0.5) | Knee Pain (NPRS) ([1]; Standard Cooling Device (Breg pad), 130 min, four patients (Example 7)): 0.8 (+/−0.5) | Knee Pain (NPRS) ([1]; Standard Cooling Device (Breg pad), 140 min, all five patients (Example 7)): 1.2 (+/−0.8) | Knee Pain (NPRS) ([1]; Standard Cooling Device (Breg pad), 140 min, four patients (Example 7)): 1.0 (+/−0.8) | Knee Pain (NPRS) ([1]; Standard Cooling Device (Breg pad), 150 min, all five patients (Example 7)): 1.2 (+/−1.1) | Knee Pain (NPRS) ([1]; Standard Cooling Device (Breg pad), 150 min, four patients (Example 7)): 1.3 (+/−1.3) | Knee Pain (NPRS) ([1]; Standard Cooling Device (Breg pad), Baseline, all five patients (Example 7)): 1.8 (+/−2.4) | Knee Pain (NPRS) ([1]; Standard Cooling Device (Breg pad), Baseline, four patients (Example 7)): 2.0 (+/−2.7) | Knee Pain (NPRS) ([2]; Ice-Gel Pack (Elasto-Gel wrap), 20 min): 0.8 (+/−0.5) | Knee Pain (NPRS) ([2]; Ice-Gel Pack (Elasto-Gel wrap), 30 min): 0.5 (+/−0.6) | Knee Pain (NPRS) ([2]; Ice-Gel Pack (Elasto-Gel wrap), 50 min): 0.8 (+/−1.0) | Knee Pain (NPRS) ([2]; Ice-Gel Pack (Elasto-Gel wrap), 70 min): 4.8 (+/−3.2) | Knee Pain (NPRS) ([2]; Ice-Gel Pack (Elasto-Gel wrap), 80 min): 4.3 (+/−3.0) | Knee Pain (NPRS) ([2]; Ice-Gel Pack (Elasto-Gel wrap), 90 min): 3.0 (+/−1.8) | Knee Pain (NPRS) ([2]; Ice-Gel Pack (Elasto-Gel wrap), 100 min): 2.8 (+/−1.5) | Knee Pain (NPRS) ([2]; Ice-Gel Pack (Elasto-Gel wrap), 110 min): 2.8 (+/−2.1) | Knee Pain (NPRS) ([2]; Ice-Gel Pack (Elasto-Gel wrap), 120 min): 4.5 (+/−3.3) | Knee Pain (NPRS) ([2]; Ice-Gel Pack (Elasto-Gel wrap), 130 min): 3.0 (+/−1.4) | Knee Pain (NPRS) ([2]; Ice-Gel Pack (Elasto-Gel wrap), Baseline): 1.0 (+/−0.8) | Knee Pain (NPRS) ([2]; Standard Cooling Device (Breg pad), 20 min): 0.5 (+/−0.6) | Knee Pain (NPRS) ([2]; Standard Cooling Device (Breg pad), 30 min): 0.5 (+/−0.6) | Knee Pain (NPRS) ([2]; Standard Cooling Device (Breg pad), 50 min): 0.8 (+/−1.0) | Knee Pain (NPRS) ([2]; Standard Cooling Device (Breg pad), 70 min): 2.5 (+/−3.7) | Knee Pain (NPRS) ([2]; Standard Cooling Device (Breg pad), 80 min): 2.5 (+/−3.0) | Knee Pain (NPRS) ([2]; Standard Cooling Device (Breg pad), 90 min): 2.5 (+/−2.4) | Knee Pain (NPRS) ([2]; Standard Cooling Device (Breg pad), 100 min): 1.8 (+/−1.5) | Knee Pain (NPRS) ([2]; Standard Cooling Device (Breg pad), 110 min): 1.8 (+/−1.5) | Knee Pain (NPRS) ([2]; Standard Cooling Device (Breg pad), 120 min): 1.3 (+/−1.3) | Knee Pain (NPRS) ([2]; Standard Cooling Device (Breg pad), 130 min): 1.5 (+/−1.0) | Knee Pain (NPRS) ([2]; Standard Cooling Device (Breg pad), Baseline): 0.5 (+/−0.6)
